From ChEMBL document CHEMBL1201862, “PubChem BioAssay data set” (2004)
The source made the active and inactive calls.

Columns and labels:
Bcl-2-related protein A1 [1] = molecular target: T1, Bcl-2-related protein A1 (Mus musculus, UniProt Q07440); assay: Bfl-1 inhibitors blocking BH3 peptide binding, confirmation, biochemical, TR-FRET, mouse Bfl-1 (AID 621);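 further: TR-FRET binding of GST-Bfl-1 to FITC-labelled Bid peptide via terbium antibody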
T1 sequence (Q07440 whole entry): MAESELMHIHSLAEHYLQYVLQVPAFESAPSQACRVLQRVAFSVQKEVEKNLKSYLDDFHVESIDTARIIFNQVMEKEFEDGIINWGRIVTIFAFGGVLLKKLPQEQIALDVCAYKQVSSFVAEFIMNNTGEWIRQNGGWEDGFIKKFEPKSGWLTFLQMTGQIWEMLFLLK

[2] = molecular target: Glyceraldehyde-3-phosphate dehydrogenase (Homo sapiens, UniProt P04406)
Chain of Glyceraldehyde-3-phosphate dehydrogenase (P04406 whole entry): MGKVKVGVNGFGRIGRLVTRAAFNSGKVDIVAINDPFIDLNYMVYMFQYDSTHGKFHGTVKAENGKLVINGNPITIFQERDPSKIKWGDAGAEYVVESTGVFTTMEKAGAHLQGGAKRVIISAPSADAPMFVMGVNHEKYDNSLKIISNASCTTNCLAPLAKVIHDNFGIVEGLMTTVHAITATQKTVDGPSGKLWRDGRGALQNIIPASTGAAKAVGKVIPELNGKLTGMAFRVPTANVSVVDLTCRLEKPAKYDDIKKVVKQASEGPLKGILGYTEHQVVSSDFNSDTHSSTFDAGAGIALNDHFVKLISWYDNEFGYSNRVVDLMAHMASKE

Bcl-2-related protein A1 [3] = molecular target: T1, Bcl-2-related protein A1; assay: Bfl-1 binding inhibitors, SAR follow-up, biochemical, fluorescence polarization (AID 1070)
Ephrin type-A receptor 4 = Ephrin type-A receptor 4 (Mus musculus, UniProt Q03137); assay: inhibitors of EphA4 binding to KYL peptide, primary screen, biochemical, colorimetric, mouse EphA4 (AID 689); type: functional
Chain of Ephrin type-A receptor 4 (Q03137 whole entry): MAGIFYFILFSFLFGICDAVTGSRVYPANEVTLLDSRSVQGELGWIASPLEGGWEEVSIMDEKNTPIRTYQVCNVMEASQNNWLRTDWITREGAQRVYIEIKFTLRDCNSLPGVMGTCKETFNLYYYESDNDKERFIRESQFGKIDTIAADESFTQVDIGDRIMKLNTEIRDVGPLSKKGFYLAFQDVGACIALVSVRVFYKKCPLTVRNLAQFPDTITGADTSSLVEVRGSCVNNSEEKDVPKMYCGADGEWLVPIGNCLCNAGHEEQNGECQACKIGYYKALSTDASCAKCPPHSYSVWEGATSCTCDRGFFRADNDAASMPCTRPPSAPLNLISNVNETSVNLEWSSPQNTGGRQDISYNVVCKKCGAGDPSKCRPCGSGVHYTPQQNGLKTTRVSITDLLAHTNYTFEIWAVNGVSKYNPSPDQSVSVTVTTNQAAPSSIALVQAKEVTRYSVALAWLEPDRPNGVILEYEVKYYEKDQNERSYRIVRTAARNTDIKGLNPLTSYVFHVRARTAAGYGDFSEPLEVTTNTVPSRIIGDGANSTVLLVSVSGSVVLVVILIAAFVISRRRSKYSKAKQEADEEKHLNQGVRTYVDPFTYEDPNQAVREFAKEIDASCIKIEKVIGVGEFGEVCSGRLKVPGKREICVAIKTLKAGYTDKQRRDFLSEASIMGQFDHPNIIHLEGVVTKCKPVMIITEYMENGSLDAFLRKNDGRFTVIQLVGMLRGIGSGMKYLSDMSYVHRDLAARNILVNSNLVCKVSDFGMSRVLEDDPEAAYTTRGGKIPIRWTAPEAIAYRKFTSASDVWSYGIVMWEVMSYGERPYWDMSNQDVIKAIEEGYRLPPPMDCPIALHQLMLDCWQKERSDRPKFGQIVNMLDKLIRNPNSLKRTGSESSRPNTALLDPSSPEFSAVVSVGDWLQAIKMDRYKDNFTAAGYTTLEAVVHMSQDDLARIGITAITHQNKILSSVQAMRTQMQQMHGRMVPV

Bcl-2-related protein A1 [4] = molecular target: T1, Bcl-2-related protein A1; assay: Bfl-1 inhibitors, primary screen, biochemical, fluorescence polarization, FITC-Bid, mouse (AID 432)
Cytochrome P450 2D6 = Cytochrome P450 2D6 (Homo sapiens, UniProt P10635);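 further: CYP2D6 member of a cytochrome P450 panel assay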
Chain of Cytochrome P450 2D6 (P10635 whole entry): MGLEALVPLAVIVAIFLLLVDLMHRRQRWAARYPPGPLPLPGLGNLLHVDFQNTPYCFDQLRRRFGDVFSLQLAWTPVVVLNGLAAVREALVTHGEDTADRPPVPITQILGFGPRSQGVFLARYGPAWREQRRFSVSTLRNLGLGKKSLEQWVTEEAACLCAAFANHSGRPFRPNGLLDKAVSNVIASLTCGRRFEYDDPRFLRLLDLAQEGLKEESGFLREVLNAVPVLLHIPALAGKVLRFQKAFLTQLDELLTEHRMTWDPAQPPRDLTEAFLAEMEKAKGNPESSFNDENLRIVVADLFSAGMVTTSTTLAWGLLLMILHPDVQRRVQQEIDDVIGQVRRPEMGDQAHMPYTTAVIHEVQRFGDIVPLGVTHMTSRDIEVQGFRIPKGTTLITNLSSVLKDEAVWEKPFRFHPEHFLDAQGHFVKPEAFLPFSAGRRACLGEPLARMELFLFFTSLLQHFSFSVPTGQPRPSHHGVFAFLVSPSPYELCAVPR

NADPH oxidase 1 [5] = molecular target: T2, NADPH oxidase 1 (Homo sapiens, UniProt Q9Y5S8); assay: Late-stage luminescence-based cell-based dose response assay to identify inhibitors of NADPH oxidase 1 (NOX1): Purchased analogs 2.; type: functional
T2 sequence (Q9Y5S8 whole entry): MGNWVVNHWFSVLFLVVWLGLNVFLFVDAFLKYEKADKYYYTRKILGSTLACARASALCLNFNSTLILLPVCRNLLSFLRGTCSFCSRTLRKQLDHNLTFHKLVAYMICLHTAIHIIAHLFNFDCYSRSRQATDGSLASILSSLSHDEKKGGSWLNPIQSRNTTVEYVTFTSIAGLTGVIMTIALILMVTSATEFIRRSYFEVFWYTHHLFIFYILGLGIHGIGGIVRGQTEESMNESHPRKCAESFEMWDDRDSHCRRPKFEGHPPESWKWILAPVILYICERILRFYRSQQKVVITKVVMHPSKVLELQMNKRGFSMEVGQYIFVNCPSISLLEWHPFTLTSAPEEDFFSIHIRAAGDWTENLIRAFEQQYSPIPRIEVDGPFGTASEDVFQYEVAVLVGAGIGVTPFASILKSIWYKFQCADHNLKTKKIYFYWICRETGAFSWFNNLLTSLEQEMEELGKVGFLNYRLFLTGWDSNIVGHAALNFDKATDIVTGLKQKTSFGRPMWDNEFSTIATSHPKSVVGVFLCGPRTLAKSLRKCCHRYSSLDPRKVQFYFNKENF

[6] = molecular target: E3 ubiquitin-protein ligase Mdm2 (Homo sapiens, UniProt Q00987); assay: enhancers of MDM2-luciferase reporter signal, concentration-effect titration, project on inhibitors of MDM2 ubiquitin ligase, cellular assay, luminescent readout, 384-well plate format (AID 1394); type: functional;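 further: MDM2 E3 inhibitors raise luminescence so EC50 is for signal enhancement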
Chain of E3 ubiquitin-protein ligase Mdm2 (Q00987 whole entry): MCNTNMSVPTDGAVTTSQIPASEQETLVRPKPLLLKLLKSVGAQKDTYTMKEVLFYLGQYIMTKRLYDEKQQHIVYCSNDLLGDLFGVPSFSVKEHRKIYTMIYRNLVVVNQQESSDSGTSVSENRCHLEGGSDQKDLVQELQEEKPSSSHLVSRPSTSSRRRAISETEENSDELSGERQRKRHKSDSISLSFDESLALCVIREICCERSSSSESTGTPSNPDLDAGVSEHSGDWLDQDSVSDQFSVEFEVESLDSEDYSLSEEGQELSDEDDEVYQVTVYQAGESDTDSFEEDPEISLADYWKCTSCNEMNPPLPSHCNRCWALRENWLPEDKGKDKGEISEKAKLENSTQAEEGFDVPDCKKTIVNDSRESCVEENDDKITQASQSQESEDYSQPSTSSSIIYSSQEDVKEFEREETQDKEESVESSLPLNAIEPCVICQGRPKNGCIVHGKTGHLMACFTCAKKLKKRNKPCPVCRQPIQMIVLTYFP

NADPH oxidase 1 [7] = molecular target: T2, NADPH oxidase 1; assay: Late-stage luminescence-based cell-based dose response assay to identify inhibitors of NADPH oxidase 1 (NOX1): Synthesized analogs 3.; type: functional
Fibrinogen beta chain [8] = molecular target: T3, Fibrinogen beta chain (Homo sapiens, UniProt P02675); assay: Fluorescence polarization-based biochemical high throughput dose response assay to identify inhibitors that disrupt the binding of a cyclic peptide (Tn7) to the fibrin proteolytic product D-Dimer and fragment E complex [DD(E )].
T3 sequence (P02675 whole entry, the tested form may be a part): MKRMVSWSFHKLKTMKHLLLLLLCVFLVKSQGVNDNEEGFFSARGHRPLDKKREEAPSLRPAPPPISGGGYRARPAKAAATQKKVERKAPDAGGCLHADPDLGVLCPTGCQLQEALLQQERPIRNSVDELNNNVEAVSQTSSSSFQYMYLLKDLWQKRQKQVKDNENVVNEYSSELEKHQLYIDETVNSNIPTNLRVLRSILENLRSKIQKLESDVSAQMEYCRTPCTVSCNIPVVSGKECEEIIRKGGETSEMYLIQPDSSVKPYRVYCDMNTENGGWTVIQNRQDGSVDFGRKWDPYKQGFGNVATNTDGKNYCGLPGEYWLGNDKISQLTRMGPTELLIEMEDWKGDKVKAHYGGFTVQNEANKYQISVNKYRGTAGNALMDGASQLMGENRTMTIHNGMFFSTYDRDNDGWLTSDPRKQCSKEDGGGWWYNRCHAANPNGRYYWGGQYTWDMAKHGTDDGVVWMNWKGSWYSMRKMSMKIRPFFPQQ

Troponin, cardiac muscle = Troponin, cardiac muscle (Homo sapiens, UniProt P19429+P45379+P63316); assay: Fluorescence-based biochemical high throughput dose response assay for activators of the calcium sensitivity of cardiac Regulated Thin Filaments (RTF). [Related pubchem assays (depositor defined):AID493008, AID493018, AID504382, AID504383]; type: protein-complex assay
Fibrinogen beta chain [9] = molecular target: T3, Fibrinogen beta chain; assay: Fluorescence polarization-based biochemical high throughput dose response assay to identify inhibitors that disrupt the binding of a cyclic peptide (Tn6) to the fibrin proteolytic product D-Dimer and fragment E complex [DD(E )].
Vero = assay: West Nile virus antiviral activity, cell-based, CPE readout (AID 1621); type: functional; conditions: Chlorocebus sabaeus

## O=C1C(Cl)=C(N2CCCCC2)C(=O)N1c1ccc(Cl)c(Cl)c1
Bcl-2-related protein A1 [1]
  IC50: 1.3 µM (active)
[2]
  IC50: > 100 µM (not active)
Bcl-2-related protein A1 [3]
  IC50: > 100 µM (not active)

## CCSc1nnc(NC(=O)C(C(F)(F)F)C(F)(F)F)s1
Bcl-2-related protein A1 [1]
  IC50: 2.66 µM (active)
Ephrin type-A receptor 4
  IC50: 4.1 µM (active)
Bcl-2-related protein A1 [4]
  IC50: 2.85 µM (active)
Cytochrome P450 2D6
  AC50: 25.1 µM (inconclusive)

## COc1ccc(/C=N/Nc2c(Cl)cc(Cl)cc2Cl)cc1
NADPH oxidase 1 [5]
  IC50: > 17 µM (not active)

## CSc1nsc(/C=C/Nc2ccc(F)cc2)c1C#N
[6]
  EC50: 2.4 µM (not active)

## CN1c2ccc(N)cc2Sc2cc(C(=O)c3ccccc3)ccc21
NADPH oxidase 1 [7]
  IC50: 0.201 µM (active)

## [O-][n+]1c2c([n+]([O-])c3cc(N4CCCC4)c(F)cc31)CCC2
Fibrinogen beta chain [8]
  IC50: > 83.3 µM (inactive)
Troponin, cardiac muscle
  EC50: > 2.65 µM (active)
Fibrinogen beta chain [9]
  IC50: 26.1 µM (inactive)

## Cc1ccc2cc(C#N)c(N3CCCN(C(S)=NCCCN(C)C)CC3)nc2c1
Vero
  IC50: 24.4 µM (active)
